One assay concerns N-ras RNA. The experiment in a line: RNase H mediated cleavage of N-ras RNA, cell-free system. It counts as biochemical. To be noted: RNase H from E. coli. On the procedure: The ability to cleave N-ras RNA specifically by PNA-DNA chimera directed against N-ras which can induce RNase H was tested in a cell-free system. First, radioactively labelled N-ras RNA was prepared by in vitro transcription.
The plasmid pMS5-NRAS, which is a derivative of pBluescript II KS (±/−) containing the mutant N-ras sequence (codon 13 GGT→CGT) cloned into XbaI/EcoRI sites, was linearized with EcoR1. After phenol extraction and ethanol precipitation the linear DNA was used as template for in vitro transcription. For transcription, the DNA (5 μg) was incubated in a 100 μl mixture containing 10 mM DTT, 40 mM Tris-HCl pH 7.5, 50 mM NaCl, 8 mM MgCl2, 2 mM spermidine, 500 μM of each rNTP, 80 u RNase-inhibitor, 40 μCi [α-^32P]-(ATP) and 250 u T7 RNA polymerase. After incubation for 1 h at 37° C., the DNA was digested by addition of 25 u DNaseI and further incubation for 30 min at 37° C. After extraction with phenol and chloroform, the aqueous phase was transferred into a Centricon tube and centrifuged at 3410 rpm for 30 min. The RNA was analyzed by PAGE (6% PAA, 8 M urea). For the RNase H cleavage the radioactively labelled N-ras RNA (approximately 0.05 nmol; aqueous solution from above) was hybridized with the PNA-DNA chimera speific for N-ras mRNA (6.5 nmol) by heating to 80° C. and cooling to room temperature. […] The cleavage reactions were analyzed by PAGE (6% PAA, 8 M urea) gel.

A further assay relates to TNF-α. Briefly: Inhibition of TNF-α expression in THP-1 cells (ELISA). The class given is cell-based, human. To be noted: 0.1-0,5 μM, Cellfectin, PMA/IFNγ stimulation. On the procedure:
Cell Culture. The human monocytic cell line, THP-1 was grown in RPMI 1640 supplemented with L-glutamine (GIBCO BRL, Life Technologies, Inc.), 10% heat inactivated fetal bovine serum (GIBCO BRL) and penicillin (100 U/ml)/streptomycin (100 μg/ml). The NIH3T3 permanently producing human TNFα was maintained in 10% DMEM.
Enzyme Linked Immunosorbent Assays (ELISA) for TNFα. The TNFα level was quantified using ELISA kit (Cat. #DTA50) obtained from R&D Systems (Minneapolis, Minn.).
Assay Methods. THP-1 cells (3×10^6) were seeded in 48-well plates in 0.2 ml of Opti-MEM (GIBCO) medium. In a 96-well plate, varying concentrations of PNA-DNA chimera (20 μl) were each added to 20 μl of Cellfectin in Opti-MEM (2.4 μl of 1 mg/ml Cellfectin added to 17.6 μl Opti-MEM) and incubated for 15 min at room temperature. The mixture was then added to the cells dropwise. The final concentration of the Cellfectin was 10 μg/ml in 0.24 ml of Opti-MEM. After 4 hours at 37° C., 0.48 ml of 15% RPMI medium was added to each well (This dilution step was added to inactivate the Cellfectin). The final concentration of cells was ˜1×10^6 calls/ml in 10% RPMI. The cells were then stimulated with a combination of 100 ng/ml of PMA and 300 U/ml of IFNγ. […] The supernatants were analyzed for TNFα.
Background: ELISA stands for enzyme-linked immunosorbent assay.

“5′-CCAACA-(Oeg(c))-cgacctgct-hex [Example 57]”: the “induction of RNase H mediated cleavage of N-ras RNA” value with N-ras RNA is reported as “able to induce RNase H mediated cleavage”. In the case of “5′-USCSASGGSUG-(Oeg(t))-cctttgcag-hex [Example 56]”, the “inhibition of TNF-α expression relative to untreated controls” value with TNF-α is 25-35%.

Source of the values: US6919441B2, “Polyamide-oligonucleotide derivatives, their preparation and use” (Aventis Pharma Deutschland GmbH, priority 1995, dated 2005).
